Measured values published in BindingDB's records for doi:10.3109/14756360903213481 (Brno University of Technology, 2010).

What was measured:
Acetylcholinesterase = Acetylcholinesterase (Electrophorus electricus, UniProt O42275); test: Acetylcholinesterase Inhibition Assay; details: pH 8; 30 °C
Experimental: (§1) The assay was carried out according to the Ellman method [Ellman et al., Biochem. Pharmacol., 7:88-95], optimized for 96-well microplates using a Tecan Sunrise™ absorbance reader. […] For the blank, 50 μL of 0.26 U mL^−1 AChE was replaced by the same volume of 0.1 M phosphate buffer pH 8.0. In a typical assay, solutions of AChE, DTNB, and the compound to be tested, as well as the phosphate buffer, were mixed and incubated for 30 min at 30°C. Next, the reaction was started by the addition of ATCI solution. […] Reaction velocities were determined from the slopes of the linear portions of the graphs of time versus concentration of 5-thio-2-nitrobenzoate. All assays were done in triplicate.

[1] = target: Carboxylic ester hydrolase (Equus caballus, UniProt Q9N1N9); test: Acetylcholinesterase Inhibition Assay; details: pH 8; 30 °C
Experimental: as §1

Sequence of Carboxylic ester hydrolase (Q9N1N9 whole entry): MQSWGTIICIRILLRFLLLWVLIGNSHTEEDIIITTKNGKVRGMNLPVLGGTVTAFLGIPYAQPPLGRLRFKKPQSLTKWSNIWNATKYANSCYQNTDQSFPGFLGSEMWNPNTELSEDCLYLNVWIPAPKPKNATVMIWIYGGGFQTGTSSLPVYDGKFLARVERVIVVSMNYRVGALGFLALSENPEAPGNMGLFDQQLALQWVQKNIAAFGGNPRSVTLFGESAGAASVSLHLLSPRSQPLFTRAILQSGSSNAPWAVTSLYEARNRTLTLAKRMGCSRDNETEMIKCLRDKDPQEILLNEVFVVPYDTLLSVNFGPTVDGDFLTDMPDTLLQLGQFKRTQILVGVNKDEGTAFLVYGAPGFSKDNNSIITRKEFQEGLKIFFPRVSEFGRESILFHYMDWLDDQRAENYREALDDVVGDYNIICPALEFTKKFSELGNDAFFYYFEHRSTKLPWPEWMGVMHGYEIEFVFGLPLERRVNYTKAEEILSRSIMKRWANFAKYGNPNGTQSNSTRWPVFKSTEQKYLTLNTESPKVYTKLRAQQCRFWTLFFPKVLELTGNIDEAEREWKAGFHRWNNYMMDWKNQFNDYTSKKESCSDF
Sequence of Acetylcholinesterase (O42275 whole entry): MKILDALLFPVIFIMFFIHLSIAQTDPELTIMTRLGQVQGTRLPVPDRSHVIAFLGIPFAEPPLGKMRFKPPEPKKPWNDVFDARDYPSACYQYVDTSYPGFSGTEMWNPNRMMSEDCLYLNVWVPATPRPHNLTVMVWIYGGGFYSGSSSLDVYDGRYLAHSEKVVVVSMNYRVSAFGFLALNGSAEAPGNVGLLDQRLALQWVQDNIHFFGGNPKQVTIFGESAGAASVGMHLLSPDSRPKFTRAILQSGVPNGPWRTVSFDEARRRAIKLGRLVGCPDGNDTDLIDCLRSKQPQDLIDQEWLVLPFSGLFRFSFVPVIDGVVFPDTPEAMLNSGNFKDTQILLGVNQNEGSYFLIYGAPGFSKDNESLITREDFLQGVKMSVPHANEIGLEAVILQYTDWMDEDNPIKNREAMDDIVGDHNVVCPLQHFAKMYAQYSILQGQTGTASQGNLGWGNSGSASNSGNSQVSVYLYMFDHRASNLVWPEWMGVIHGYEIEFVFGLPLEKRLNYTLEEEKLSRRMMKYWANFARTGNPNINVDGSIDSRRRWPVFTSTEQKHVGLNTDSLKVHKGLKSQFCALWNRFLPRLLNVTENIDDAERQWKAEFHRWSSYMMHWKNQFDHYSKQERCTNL

Row | SMILES | IC50 (Acetylcholinesterase) [µM] | IC50 [1] [µM]
1 | O=C1C(Cc2ccc(O)cc2)=C(Cc2ccc(O)cc2)C(=O)C1(c1ccc(O)cc1)C1(c2ccc(O)cc2)C(=O)C(Cc2ccc(O)cc2)=C(Cc2ccc(O)cc2)C1=O [Nostotrebin 6] | 5.5 | 6.8
2 | COc1ccc2c3c1O[C@H]1C[C@@H](O)C=C[C@@]31CCN(C)C2 [galantamine] | – | 23.3
